From patent US20250163043A1 (TRANSTHERA SCIENCES (NANJING), INC., priority 2021, published 2025)

Key:
CDK9/CycT1 [1] = target: T1, CDK9/CycT1 (Homo sapiens, UniProt P50750); experiment: Off-chip mobility shift assay (MSA) on CDK9/CycT1; type: biochemical; parameters: Full-length human CDK9 [1-372(end) amino acids of; host or cells: baculovirus expression system; settings: 4-point concentration (0.0016, 0.008, 0.04, 0.2 uM), ATP 10 μM, reaction time 5 hours, read-out: CDK9/CycT1/nM (inhibitory activity)
T1 sequence (P50750 whole entry): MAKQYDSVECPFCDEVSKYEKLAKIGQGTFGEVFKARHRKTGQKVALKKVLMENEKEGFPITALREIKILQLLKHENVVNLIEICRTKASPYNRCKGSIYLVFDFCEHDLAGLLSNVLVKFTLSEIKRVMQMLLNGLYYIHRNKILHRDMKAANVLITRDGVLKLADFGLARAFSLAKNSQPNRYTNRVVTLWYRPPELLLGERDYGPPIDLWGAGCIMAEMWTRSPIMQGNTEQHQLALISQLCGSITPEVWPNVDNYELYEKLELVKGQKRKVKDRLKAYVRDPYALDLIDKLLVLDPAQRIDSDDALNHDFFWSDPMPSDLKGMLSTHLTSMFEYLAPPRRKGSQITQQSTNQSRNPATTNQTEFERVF
T1 sequence (O60563 whole entry partner): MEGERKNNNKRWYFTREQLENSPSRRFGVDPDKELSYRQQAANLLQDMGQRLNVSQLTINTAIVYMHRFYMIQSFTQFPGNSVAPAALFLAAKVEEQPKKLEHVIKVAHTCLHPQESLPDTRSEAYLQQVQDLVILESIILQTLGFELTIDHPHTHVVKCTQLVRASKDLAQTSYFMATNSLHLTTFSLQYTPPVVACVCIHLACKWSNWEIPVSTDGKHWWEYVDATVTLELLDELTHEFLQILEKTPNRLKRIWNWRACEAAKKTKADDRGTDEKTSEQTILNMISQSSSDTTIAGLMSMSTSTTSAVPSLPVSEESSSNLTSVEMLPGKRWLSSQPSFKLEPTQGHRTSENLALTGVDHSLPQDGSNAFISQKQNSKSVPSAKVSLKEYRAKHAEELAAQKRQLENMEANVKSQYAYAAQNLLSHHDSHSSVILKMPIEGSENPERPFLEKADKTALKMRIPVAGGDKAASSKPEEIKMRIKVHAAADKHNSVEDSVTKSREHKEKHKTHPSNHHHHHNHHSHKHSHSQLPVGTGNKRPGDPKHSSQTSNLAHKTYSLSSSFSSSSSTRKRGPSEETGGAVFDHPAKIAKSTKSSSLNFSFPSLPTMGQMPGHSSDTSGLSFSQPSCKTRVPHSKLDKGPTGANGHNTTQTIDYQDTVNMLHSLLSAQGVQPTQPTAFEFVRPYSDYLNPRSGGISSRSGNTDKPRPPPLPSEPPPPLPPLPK
Experimental: Prepare 100× concentrated Test compound stock solutions with DMSO. Then, Dilute the solution 25 times with Assay Buffer (20 mM HEPES, 0.01% Triton X-100, 2 mM DTT, pH7.5) to prepare 4× test compound solutions.
Test compounds were evaluated at 4-point concentration (0.0016, 0.008, 0.04, 0.2 uM). • 1) Mix 5 μL of 4× test compound solution with 5 μL of 4× substrate/ATP/Metal solution and 10 μL of 2× kinase solution in 384-well polypropylene plate. Incubate for 5 hours at room temperature. • 2) Add 70 μL of Termination Buffer (QuickScout Screening Assist MSA; Carna Biosciences) to stop the reaction. • 3) Separate and detect unphosphorylated/phosphorylated substrate peptides in the reactant using LabChip system (Perkin Elmer). • 4) Evaluate kinase reaction from product ratio (P/(P+S)) calculated by peak height of unphosphorylated substrate(S) and peak height of phosphorylated substrate (P).

CDK3/CycE1 = CDK3/CycE1 (Homo sapiens, UniProt Q00526); experiment: ADP-Glo kinase assay on CDK enzymatic activity, CDK3/CycE1; type: biochemical; settings: 10 concentrations from 10 μM, 4-fold, 60 min room temperature
Sequence of CDK3/CycE1 (Q00526 whole entry, species assumed): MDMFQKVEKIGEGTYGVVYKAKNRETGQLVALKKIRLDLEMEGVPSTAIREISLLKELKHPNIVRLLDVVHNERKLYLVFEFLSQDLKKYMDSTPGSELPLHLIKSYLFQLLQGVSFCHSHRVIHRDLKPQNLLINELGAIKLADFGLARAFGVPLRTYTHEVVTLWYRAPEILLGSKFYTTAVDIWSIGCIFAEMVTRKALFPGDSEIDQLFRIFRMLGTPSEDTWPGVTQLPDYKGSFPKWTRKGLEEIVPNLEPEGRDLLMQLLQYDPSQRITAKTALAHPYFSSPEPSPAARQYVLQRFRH
Sequence of CDK3/CycE1 (P24864 whole entry partner, species assumed): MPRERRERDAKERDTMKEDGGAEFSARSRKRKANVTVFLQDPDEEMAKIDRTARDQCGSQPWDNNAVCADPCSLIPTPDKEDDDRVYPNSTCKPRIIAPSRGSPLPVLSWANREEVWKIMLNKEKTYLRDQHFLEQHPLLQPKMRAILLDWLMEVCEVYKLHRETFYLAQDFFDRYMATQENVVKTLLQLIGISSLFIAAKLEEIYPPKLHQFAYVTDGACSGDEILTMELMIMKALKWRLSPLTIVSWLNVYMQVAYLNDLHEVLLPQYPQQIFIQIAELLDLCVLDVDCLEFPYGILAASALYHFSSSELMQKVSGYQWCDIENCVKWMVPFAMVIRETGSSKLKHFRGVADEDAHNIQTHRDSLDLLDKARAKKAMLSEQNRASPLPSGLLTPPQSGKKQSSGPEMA
Procedure, shortened: (§1)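 Compounds were tested as 10-point, 4-fold dilutions from 10 μM final, preincubated 10 min at room temperature with kinase, then reacted 60 min with CDK tide substrate and ATP. ADP formed was detected by ADP-Glo luminescence; inhibition was normalised to 1 μM AZD4573 and 0.5% DMSO controls and IC50 fitted.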

CDK1/CycE1 = CDK1/CycE1 (Homo sapiens, UniProt P06493); experiment: ADP-Glo kinase assay on CDK enzymatic activity, CDK1/CycE1; type: biochemical; settings: ADP-Glo; 10 concentrations from 10 μM, 4-fold; 60 min room temperature; read-out: CDK1/CycE1/nM (IC50)
Sequence of CDK1/CycE1 (P06493 whole entry, species assumed): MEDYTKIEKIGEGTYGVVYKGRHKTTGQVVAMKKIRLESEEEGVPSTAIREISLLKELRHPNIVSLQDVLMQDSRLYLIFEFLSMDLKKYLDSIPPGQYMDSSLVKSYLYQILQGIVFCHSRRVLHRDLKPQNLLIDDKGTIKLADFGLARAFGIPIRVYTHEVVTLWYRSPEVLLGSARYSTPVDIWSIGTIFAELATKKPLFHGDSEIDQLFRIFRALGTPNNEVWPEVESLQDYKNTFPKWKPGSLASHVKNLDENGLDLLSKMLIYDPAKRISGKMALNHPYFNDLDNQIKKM
Sequence of CDK1/CycE1 (P24864 whole entry partner, species assumed): as the sequence (P24864 whole entry partner, species assumed) above
Procedure, shortened: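 Compounds in 10-point 4-fold dilutions from 10 μM final, preincubated 10 min with kinase, then substrate/ATP added; 60 min reaction at room temperature. ADP-Glo luminescence read.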

[2] = test system: MV-4-11 (human myelomonocytic leukemia cells); experiment: CCK-8 cell proliferation assay, MV-4-11; type: cell-based; settings: MV4-11, 24 h incubation, 11 concentrations from 5000 nM, 3-fold, read-out: MV-4-11 cell proliferation IC50 (class)
CDK2/CycA2 = CDK2/CycA2 (Homo sapiens, UniProt P24941); experiment: ADP-Glo kinase assay on CDK enzymatic activity, CDK2/CycA2; type: biochemical; settings: 10 concentrations from 10 μM, 4-fold, 60 min room temperature
Procedure, shortened: as §1

CDK9/CycT1 [3] = target: T1, CDK9/CycT1; experiment: ADP-Glo kinase assay on CDK enzymatic activity, CDK9/CycT1; type: biochemical; settings: 10 concentrations from 10 μM, 4-fold, 60 min room temperature
Procedure, shortened: as §1

CDK5/p25NCK = CDK5/p25NCK (Homo sapiens, UniProt Q00535); experiment: ADP-Glo kinase assay on CDK enzymatic activity, CDK5/p25NCK; type: biochemical; settings: 10 concentrations from 10 μM, 4-fold, 60 min room temperature
Sequence of CDK5/p25NCK (Q00535 whole entry, species assumed): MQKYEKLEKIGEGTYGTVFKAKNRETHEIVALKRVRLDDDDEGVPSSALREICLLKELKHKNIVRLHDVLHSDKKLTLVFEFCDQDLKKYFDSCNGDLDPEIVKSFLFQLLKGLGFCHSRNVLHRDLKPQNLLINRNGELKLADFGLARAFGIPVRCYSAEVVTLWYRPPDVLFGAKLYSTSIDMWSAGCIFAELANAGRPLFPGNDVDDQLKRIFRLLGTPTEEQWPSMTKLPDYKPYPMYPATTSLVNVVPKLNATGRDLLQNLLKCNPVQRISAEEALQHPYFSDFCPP
Sequence of CDK5/p25NCK (Q15078 99-307 partner limits assumed, species assumed): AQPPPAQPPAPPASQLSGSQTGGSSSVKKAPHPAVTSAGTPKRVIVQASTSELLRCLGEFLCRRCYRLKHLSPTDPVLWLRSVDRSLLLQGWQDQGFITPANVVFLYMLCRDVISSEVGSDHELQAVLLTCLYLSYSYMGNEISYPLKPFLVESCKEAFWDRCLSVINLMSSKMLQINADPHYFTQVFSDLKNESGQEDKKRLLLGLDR
Procedure, shortened: as §1

Row | Compound | IC50 (CDK9/CycT1 [1]) [nM] | also measured
1 | Cc1cc2cnc(N[C@H]3CC[C@H](O)CC3)nc2c(NC(C)C)n1 [Compound 92, (1r,4r)-4-((8-(isopropylamino)-6-methylpyrido[3,4-d]pyrimidin-2-yl)amino)cyclohexan-1-ol] | 64 | 
2 | CC(C)Nc1nc([C@@H](C)O)cc2cnc(N[C@H]3CC[C@H](O)CC3)nc12 [Compound 75, (1R,4r)-4-((6-((R)-1-hydroxyethyl)-8-(isopropylamino)pyrido[3,4-d]pyrimidin-2-yl)amino)cyclohexan-1-ol] | 36 | 
3 | CC(C)Nc1nc([C@@H](C)O)cc2cnc(NCCCO)nc12 [Compound 85, (R)-3-((6-(1-hydroxyethyl)-8-(isopropylamino)pyrido[3,4-d]pyrimidin-2-yl)amino)propan-1-ol] | 64 | 
4 | CC(C)Nc1nc(C2COC2)cc2cnc(N[C@H]3CC[C@H](O)CC3)nc12 [Compound 95, (1r,4r)-4-((8-(isopropylamino)-6-(oxetan-3-yl)pyrido[3,4-d]pyrimidin-2-yl)amino)cyclohexan-1-ol] | 34 | 
5 | CC(C)Nc1nc([C@@H](C)O)cc2cnc(NC3CC[C@H](C(=O)O)C3)nc12 (stereo in doubt) [Compound 77, (1S,3R)-3-((6-((R)-1-hydroxyethyl)-8-(isopropylamino)pyrido[3,4-d]pyrimidin-2-yl)amino)cyclopentane-1-carboxylic acid] | 85 | 
6 | CC(C)Nc1nc([C@@H](C)O)cc2cnc(NC[C@H]3CC[C@H](NS(C)(=O)=O)CC3)nc12 [Compound 73, N-((1R,4r)-4-(((6-((R)-1-hydroxyethyl)-8-(isopropylamino)pyrido[3,4-d]pyrimidin-2-yl)amino)methyl)cyclohexyl)methanesulfonamide] | 61 | 
7 | CC(C)Nc1nc([C@@H](C)O)cc2cnc(NC[C@H]3CC[C@H](N)CC3)nc12 [Compound 82, (R)-1-(2-((((1r,4R)-4-aminocyclohexyl)methyl)amino)-8-(isopropylamino)pyrido[3,4-d]pyrimidin-6-yl)ethan-1-ol] | 63 | 
8 | CC(C)Nc1nc([C@@H](C)O)cc2cnc(NCC3CCN(S(C)(=O)=O)CC3)nc12 [Compound 68, (R)-1-(8-(isopropylamino)-2-(((1-(methylsulfonyl)piperidin-4-yl)methyl)amino)pyrido[3,4-d]pyrimidin-6-yl)ethan-1-ol] | 82 | 
9 | CC(C)Nc1nc(C(F)F)cc2cnc(N[C@H]3CC[C@@H](N)C3)cc12 [Compound 53, N7-((1S,3R)-3-aminocyclopentyl)-3-(difluoromethyl)-N^1-isopropyl-2,6-naphthyridine-1,7-diamine] |  | IC50 (CDK3/CycE1): 315 nM; IC50 (CDK1/CycE1): 709 nM; IC50 [2]: 400 to 1000 nM; IC50 (CDK2/CycA2): 161 nM; IC50 (CDK9/CycT1 [3]): 2 nM; IC50 (CDK5/p25NCK): 549 nM
10 | CC(C)Nc1nc([C@@H](C)O)cc2cnc(NC(=O)[C@@H]3CCCNC3)cc12 [Compound 86, (R)—N-(7-((R)-1-hydroxyethyl)-5-(isopropylamino)-2,6-naphthyridin-3-yl)piperidine-3-carboxamide] | 50 | 

Now from value to molecule, other results behind:

Row | IC50 (CDK9/CycT1 [1]) [nM] | Compound | also measured
11 | 7 | C#Cc1cc2cnc(N[C@H]3CC[C@H](O)CC3)nc2c(NC(C)C)n1 [Compound 93, (1r,4r)-4-((6-ethynyl-8-(isopropylamino)pyrido[3,4-d]pyrimidin-2-yl)amino)cyclohexan-1-ol] | 
12 | 10 | CC(C)Nc1nc([C@@H](C)O)cc2cnc(N[C@H]3CC[C@H](N)CC3)nc12 [Compound 76, (R)-1-(2-(((1r,4R)-4-aminocyclohexyl)amino)-8-(isopropylamino)pyrido[3,4-d]pyrimidin-6-yl)ethan-1-ol] | 
13 | 28 | CC(=O)N[C@@H]1CCC[C@H](C(=O)Nc2cc3c(NC(C)C)nc([C@@H](C)O)cc3cn2)C1 [Compound 98, (1S,3R)-3-acetamido-N-(7-((R)-1-hydroxyethyl)-5-(isopropylamino)-2,6-naphthyridin-3-yl)cyclohexane-1-carboxamide] | 
14 | 10 | CC(C)Nc1nc([C@@H](C)O)cc2cnc(N[C@H]3CC[C@H](N4CCN(C)CC4)CC3)nc12 [Compound 67, (R)-1-(8-(isopropylamino)-2-(((1r,4R)-4-(4-methylpiperazin-1-yl)cyclohexyl)amino)pyrido[3,4-d]pyrimidin-6-yl)ethan-1-ol] | 
15 | 12 | CC(C)Nc1nc([C@@H](C)O)cc2cnc(N[C@H]3CC[C@H](NC4COC4)CC3)nc12 [Compound 80, (R)-1-(8-(isopropylamino)-2-(((1r,4R)-4-(oxetan-3-ylamino)cyclohexyl)amino)pyrido[3,4-d]pyrimidin-6-yl)ethan-1-ol] | 
16 | 5 | CC(C)Nc1nc(C#N)cc2cnc(N[C@H]3CC[C@H](NC(=O)CN(C)C)CC3)nc12 [Compound 66, N-((1r,4r)-4-((6-cyano-8-(isopropylamino)pyrido[3,4-d]pyrimidin-2-yl)amino)cyclohexyl)-2-(dimethylamino)acetamide] | 
17 | 24 | CC(C)Nc1nccc2cnc(N[C@H]3CC[C@H](O)CC3)nc12 [Compound 89, (1r,4r)-4-((8-(isopropylamino)pyrido[3,4-d]pyrimidin-2-yl)amino)cyclohexan-1-ol] | 
18 | 19 | CC(C)Nc1nc([C@@H](C)O)cc2cnc(N[C@H]3CC[C@H](NC4CCOCC4)CC3)nc12 [Compound 74, (R)-1-(8-(isopropylamino)-2-(((1r,4R)-4-((tetrahydro-2H-pyran-4-yl)amino)cyclohexyl)amino)pyrido[3,4-d]pyrimidin-6-yl)ethan-1-ol] | 
19 | 29 | C=Cc1cc2cnc(NC(=O)[C@H]3CCC[C@@H](NC(C)=O)C3)cc2c(NC(C)C)n1 [Compound 99, (1S,3R)-3-acetamido-N-(5-(isopropylamino)-7-vinyl-2,6-naphthyridin-3-yl)cyclohexane-1-carboxamide] | 
20 | 6 | CC(C)Nc1nc(C(F)F)cc2cnc(N[C@H]3CC[C@H](O)CC3)nc12 [Compound 91, (1r,4r)-4-((6-(difluoromethyl)-8-(isopropylamino)pyrido[3,4-d]pyrimidin-2-yl)amino)cyclohexan-1-ol] | 
21 | 17 | CC(C)Nc1nc(CO)cc2cnc(N[C@H]3CC[C@H](O)CC3)nc12 [Compound 97, (1r,4r)-4-((6-(hydroxymethyl)-8-(isopropylamino)pyrido[3,4-d]pyrimidin-2-yl)amino)cyclohexan-1-ol] | 
22 | 7 | CC(=O)N[C@@H]1CCC[C@H](C(=O)Nc2cc3c(NC(C)C)nc(C(F)F)cc3cn2)C1 [Compound 1, (1S,3R)-3-acetamido-N-(7-(difluoromethyl)-5-(isopropylamino)-2,6-naphthyridin-3-yl)cyclohexane-1-carboxamide] | 
23 | 21 | CC(=O)N[C@H]1CC[C@H](Nc2ncc3cc([C@@H](C)O)nc(NC(C)C)c3n2)CC1 [Compound 65, N-((1R,4r)-4-((6-((R)-1-hydroxyethyl)-8-(isopropylamino)pyrido[3,4-d]pyrimidin-2-yl)amino)cyclohexyl)acetamide] | 
24 | 15 | CC(C)Nc1nc([C@@H](C)O)cc2cnc(N[C@H]3CC[C@H](NC4COC4)CC3)cc12 [Compound 101, (R)-1-(1-(isopropylamino)-7-(((1r,4R)-4-(oxetan-3-ylamino)cyclohexyl)amino)-2,6-naphthyridin-3-yl)ethan-1-ol] | 
